Results reported in ChEMBL document CHEMBL1148223, “Isolation and phytotoxicity of apocarotenoids from Chenopodium album” (2004).
Calls of active or inactive are those of the source. The rule behind the calls is not given here.

What was measured:
Format in all cases: functional
[1] = test system: Lactuca sativa; experiment: Reduction of Lactuca sativa length development; parameters: scale not given: the % may be the effect or the level left
[2] = test system: Lactuca sativa; experiment: Reduction of Lactuca sativa seeds germination at 100 uM daily for 5 days relative to control; parameters: Activity: scale not given: the % may be the effect or the level left; conditions: for inhibition at 100 µM: Lactuca sativa, 120 h
[3] = test system: Lactuca sativa; experiment: Reduction of Lactuca sativa shoot length at 0.1 uM relative to control; parameters: scale not given: the % may be the effect or the level left
[4] = test system: Lactuca sativa; experiment: Reduction of Lactuca sativa root length at 0.1 uM relative to control; parameters: scale not given: the % may be the effect or the level left

SMILES: CC1=CC(=O)CC(C)(C)[C@@]1(O)/C=C/[C@@H](C)O [BLUMENOL A]
- Activity [1]: 30%

SMILES: CC(=O)/C=C/[C@@]1(O)C(C)=CC(=O)CC1(C)C
- Activity [1]: 30%

SMILES: CC(=O)/C=C/[C@H]1C(C)=C[C@H](O)CC1(C)C
- inhibition at 100 µM [2]: 30%

SMILES: CC1=CC(=O)CC(C)(C)[C@@]1(O)/C=C/C(C)=C/CO
- Activity [2]: Active

SMILES: CC(=O)C=C=C1C(C)(C)C[C@H](O)C[C@@]1(C)O
- Activity [3]: 30%
- Activity [4]: 20%

SMILES: CC(=O)/C=C/C=C(C)/C=C/[C@H]1C(C)=C[C@H](O)CC1(C)C
- Activity [2]: 20%

SMILES: CC(=O)/C=C/C=C(C)/C=C/[C@@]1(O)C(C)=CC(=O)CC1(C)C
- Activity [2]: 20%

SMILES: CC(=O)/C=C/[C@H]1C(C)=CC(=O)CC1(C)C
- inhibition at 100 µM [2]: 30%
